Source: paper PMC7617869, “Molecular glues that inhibit deubiquitylase activity and inflammatory signaling” (Nature Structural & Molecular Biology, 2025)
Several values for one entry are separate records, joined by “and”; a condition that tells them apart may be missing. Identical values can stand only once.

Key:
Format in all cases: biochemical
ARISC (FL) = biological target: T1, ARISC (FL) (Homo sapiens, UniProt P46736+Q6UWZ7+Q9NXR7); test: In-gel deubiquitylation assay, TAMRA-labeled K63-tetraubiquitin, ARISC; conditions: 10 μM or 100 μM inhibitor
T1 construct: full-length BRISC (FL), ARISC (FL); made in house; host or cells: Spodoptera frugiperda Sf9 insect cells (MultiBac)
Method: The inhibitor capzimin (Merck) was diluted in 1 mM DTT and incubated for 30 min at room temperature to reduce disulfide bonds required for inhibitor activity. […] DUBs were incubated with 750 nM TAMRA-labeled K63-tetraubiquitin (LifeSensors, SI6304T) for 10 min at 30 °C. Reactions were quenched by adding 2.5 μl of 4× SDS–PAGE loading dye (240 mM Tris-HCl pH 6.8, 40% v/v glycerol, 8% w/v SDS, 0.04% w/v bromophenol blue and 5% v/v β-mercaptoethanol). The samples were resolved on 4–12% NuPAGE Bis–Tris gels (Thermo Fisher Scientific). Gels were scanned using an iBright FL 1500 (Thermo Fisher Scientific) (excitation, 515–545 nm; emission, 568–617 nm; exposure, 500 ms).

ARISC = biological target: T2, ARISC (Homo sapiens, UniProt P46736+Q6UWZ7+Q9NXR7); test: ARISC IQF DUB activity assay; conditions: for Normalised V0: Fig. 1e, ARISC
T2 construct: full-length BRISC (FL), ARISC (FL); made in house; host or cells: Spodoptera frugiperda (Sf9) insect cells, MultiBac
Method: (§1) IQF assays were performed in DUB reaction buffer containing 50 mM HEPES–NaOH pH 7.0, 100 mM NaCl, 0.1 mg ml^−1 BSA, 1 mM DTT and 0.03% v/v Brij-35. […] The final concentration of BRISC WT, all BRISC mutants, HsBRISCΔLoop, MmBRISC and DrBRISCΔNΔC was 1 nM. Other enzymes were tested at the following concentrations: 5 nM ARISC (FL), 10 nM CfBRISCΔNΔC, 250 nM AMSH* (ref. [43]), 500 nM USP2 and 1 μM trypsin (Sigma, 9002-07-7). For Michaelis–Menten experiments, 1 nM BRISC with 0–1 μM IQF K63-linked diubiquitin substrate was used. Michaelis–Menten analyses and Lineweaver–Burk plots were calculated using GraphPad Prism (version 9.0).
To assess enzymatic activity, BRISC complexes were diluted to concentrations between 1 nM and 50 nM. […] Then, 20-μl enzyme reactions were carried out in 384-well black flat-bottom low-flange plates (Corning, 35373). DUB activity was measured using IQF K63-linked diubiquitin (LifeSensors, DU6303) at 50 nM. Cleaved diubiquitin was monitored by measuring fluorescence intensity (excitation, 544 nm; emission, 575 nm; dichroic mirror, 560 nm). Fluorescence intensity was measured every minute for 30 min at 30 °C. Fluorescence intensity units were plotted against time to generate a linear reaction progress curve, where the initial velocity (V0) corresponds to the gradient of the curve (typically achieved within 15 min). IC50 values were calculated using the GraphPad Prism (version 9.0) built-in dose–response equation for inhibitor concentration versus response (variable slope).

BRISC = biological target: T3, BRISC (Homo sapiens, UniProt P46736+Q15018+Q9NXR7); test: Michaelis–Menten analysis of BRISC inhibition
T3 construct: made in house; host or cells: Spodoptera frugiperda (Sf9) insect cells, MultiBac
Method: as §1

## O=C(NC1CCNCC1)c1nn(C(=O)c2c(Cl)cccc2Cl)cc1NC(=O)c1c(Cl)cccc1Cl [JMS-175-2]
ARISC (FL)
  inhibition of ARISC activity against tetraubiquitin: did not inhibit
ARISC
  inhibition of ARISC: did not inhibit
ARISC; JMS-175-2 0.02 μM
  Normalised V0: 0.8556 and 0.9425 and 1.0233
ARISC; JMS-175-2 0.0399999 μM
  Normalised V0: 1.026 and 1.067 and 1.046
ARISC; JMS-175-2 0.0599997 μM
  Normalised V0: 0.904 and 0.9422 and 0.9811
ARISC; JMS-175-2 0.0799994 μM
  Normalised V0: 0.9323 and 0.9821 and 1.136
ARISC; JMS-175-2 0.119998 μM
  Normalised V0: 0.8786 and 0.8823 and 0.8932
ARISC; JMS-175-2 0.199996 μM
  Normalised V0: 0.9071 and 0.9585 and 0.9413
ARISC; JMS-175-2 0.499975 μM
  Normalised V0: 0.8879 and 0.8767 and 0.9696
ARISC; JMS-175-2 0.799936 μM
  Normalised V0: 0.7555 and 0.9585 and 0.9201
ARISC; JMS-175-2 1.25984 μM
  Normalised V0: 0.8739 and 0.9751 and 0.9993
ARISC; JMS-175-2 1.9996 μM
  Normalised V0: 0.8524 and 0.9491 and 1.046
ARISC; JMS-175-2 3.159 μM
  Normalised V0: 0.8187 and 0.9789 and 0.9215
ARISC; JMS-175-2 5.19739 μM
  Normalised V0: 0.8621 and 0.9152 and 0.9509
ARISC; JMS-175-2 7.99364 μM
  Normalised V0: 0.8584 and 0.954 and 0.9288
ARISC; JMS-175-2 12.7839 μM
  Normalised V0: 0.8845 and 0.9334 and 1.056
ARISC; JMS-175-2 19.96 μM
  Normalised V0: 0.8867 and 0.9068 and 0.9342
ARISC; JMS-175-2 31.4999 μM
  Normalised V0: 0.9307 and 0.9204 and 1.017
ARISC; JMS-175-2 50.147 μM
  Normalised V0: 0.795 and 0.9622 and 0.9115
ARISC; JMS-175-2 79.7601 μM
  Normalised V0: 0.6555 and 0.8717 and 0.8624
BRISC; di-Ub-TAMRA 31.2 nM, inhibitor 48 nM
  Initial velocity (FU/min): 124.7 FU/min and 137.4 FU/min and 146.6 FU/min
BRISC; di-Ub-TAMRA 31.2 nM, inhibitor 195 nM
  Initial velocity (FU/min): 137.4 FU/min and 132.5 FU/min and 144.8 FU/min
BRISC; di-Ub-TAMRA 31.2 nM, inhibitor 781 nM
  Initial velocity (FU/min): 114 FU/min and 123.2 FU/min and 122.2 FU/min
BRISC; di-Ub-TAMRA 31.2 nM, inhibitor 3.12 μM
  Initial velocity (FU/min): 80.48 FU/min and 77.42 FU/min and 88.2 FU/min
BRISC; di-Ub-TAMRA 31.2 nM, inhibitor 12.5 μM
  Initial velocity (FU/min): 62.2 FU/min and 65.87 FU/min and 55.25 FU/min
BRISC; di-Ub-TAMRA 31.2 nM, inhibitor 50 μM
  Initial velocity (FU/min): 31.39 FU/min and 49.47 FU/min and 41.04 FU/min
BRISC; di-Ub-TAMRA 62.5 nM, inhibitor 48 nM
  Initial velocity (FU/min): 222.1 FU/min and 242.3 FU/min and 243.8 FU/min
BRISC; di-Ub-TAMRA 62.5 nM, inhibitor 195 nM
  Initial velocity (FU/min): 205.5 FU/min and 232 FU/min and 265.7 FU/min
BRISC; di-Ub-TAMRA 62.5 nM, inhibitor 781 nM
  Initial velocity (FU/min): 172.4 FU/min and 226.1 FU/min and 228.4 FU/min
BRISC; di-Ub-TAMRA 62.5 nM, inhibitor 3.12 μM
  Initial velocity (FU/min): 160.2 FU/min and 117.4 FU/min and 160.5 FU/min
BRISC; di-Ub-TAMRA 62.5 nM, inhibitor 12.5 μM
  Initial velocity (FU/min): 80.26 FU/min and 123.7 FU/min and 100.7 FU/min
BRISC; di-Ub-TAMRA 62.5 nM, inhibitor 50 μM
  Initial velocity (FU/min): 43.48 FU/min and 66.23 FU/min and 64.63 FU/min
BRISC; di-Ub-TAMRA 125 nM, inhibitor 48 nM
  Initial velocity (FU/min): 476.9 FU/min and 540.8 FU/min and 503.9 FU/min
BRISC; di-Ub-TAMRA 125 nM, inhibitor 195 nM
  Initial velocity (FU/min): 474.4 FU/min and 538.4 FU/min and 481.2 FU/min
BRISC; di-Ub-TAMRA 125 nM, inhibitor 781 nM
  Initial velocity (FU/min): 402.8 FU/min and 468.4 FU/min and 474 FU/min
BRISC; di-Ub-TAMRA 125 nM, inhibitor 3.12 μM
  Initial velocity (FU/min): 310.9 FU/min and 277.7 FU/min and 256.8 FU/min
BRISC; di-Ub-TAMRA 125 nM, inhibitor 12.5 μM
  Initial velocity (FU/min): 183.3 FU/min and 175.6 FU/min and 208.5 FU/min
BRISC; di-Ub-TAMRA 125 nM, inhibitor 50 μM
  Initial velocity (FU/min): 67.12 FU/min and 88.75 FU/min and 84.05 FU/min
BRISC; di-Ub-TAMRA 250 nM, inhibitor 48 nM
  Initial velocity (FU/min): 886 FU/min and 905.7 FU/min and 906.9 FU/min
BRISC; di-Ub-TAMRA 250 nM, inhibitor 195 nM
  Initial velocity (FU/min): 866.4 FU/min and 900.9 FU/min and 960.9 FU/min
BRISC; di-Ub-TAMRA 250 nM, inhibitor 781 nM
  Initial velocity (FU/min): 740.9 FU/min and 834.7 FU/min and 869 FU/min
BRISC; di-Ub-TAMRA 250 nM, inhibitor 3.12 μM
  Initial velocity (FU/min): 573.6 FU/min and 456.6 FU/min and 483.6 FU/min
BRISC; di-Ub-TAMRA 250 nM, inhibitor 12.5 μM
  Initial velocity (FU/min): 283.5 FU/min and 316 FU/min and 354.2 FU/min
BRISC; di-Ub-TAMRA 250 nM, inhibitor 50 μM
  Initial velocity (FU/min): 119.1 FU/min and 114.6 FU/min and 160 FU/min
BRISC; di-Ub-TAMRA 500 nM, inhibitor 195 nM
  Initial velocity (FU/min): 1677 FU/min and 3345 FU/min and 1765 FU/min
BRISC; di-Ub-TAMRA 500 nM, inhibitor 3.12 μM
  Initial velocity (FU/min): 1143 FU/min and 881.4 FU/min and 1578 FU/min
BRISC; di-Ub-TAMRA 500 nM, inhibitor 12.5 μM
  Initial velocity (FU/min): 579 FU/min and 1146 FU/min and 683.3 FU/min
BRISC; di-Ub-TAMRA 1000 nM, inhibitor 48 nM
  Initial velocity (FU/min): 3019 FU/min and 3362 FU/min and 3486 FU/min
BRISC; di-Ub-TAMRA 1000 nM, inhibitor 195 nM
  Initial velocity (FU/min): 3093 FU/min and 3236 FU/min and 3210 FU/min
BRISC; di-Ub-TAMRA 1000 nM, inhibitor 781 nM
  Initial velocity (FU/min): 2371 FU/min and 2828 FU/min and 2787 FU/min
BRISC; di-Ub-TAMRA 1000 nM, inhibitor 3.12 μM
  Initial velocity (FU/min): 1731 FU/min and 1418 FU/min and 1905 FU/min
BRISC; di-Ub-TAMRA 1000 nM, inhibitor 12.5 μM
  Initial velocity (FU/min): 1009 FU/min and 1193 FU/min and 1032 FU/min
BRISC; di-Ub-TAMRA 1000 nM, inhibitor 50 μM
  Initial velocity (FU/min): 371.3 FU/min and 640.2 FU/min and 667.9 FU/min
BRISC; enzyme activity at different substrate concentrations
  mode of inhibition: not competitive inhibitors
